Columns and labels:
[1] = molecular target: Cyclin-dependent kinase 4/cyclin D1 (Homo sapiens, UniProt P11802)
Description: Inhibition of CDK4/Cyclin D1

[2] = molecular target: Cyclin-dependent kinase 2 (Homo sapiens, UniProt P24941)
Description: Inhibition of CDK2/Cyclin E

[3] = molecular target: Cyclin-dependent kinase 1 (Homo sapiens, UniProt P06493)
Description: Inhibition of CDK1/Cyclin B

in vivo [4] = conditions: nude, mouse, iv, 10 mg/kg
Description: Clearance in nude mouse at 10 mg/kg, iv

in vivo [5] = conditions: nude, mouse, iv, 10 mg/kg; remark: listed apart in the source
Description: Volume of distribution in nude mouse at 10 mg/kg, iv

Chain of Cyclin-dependent kinase 4/cyclin D1 (P11802 whole entry): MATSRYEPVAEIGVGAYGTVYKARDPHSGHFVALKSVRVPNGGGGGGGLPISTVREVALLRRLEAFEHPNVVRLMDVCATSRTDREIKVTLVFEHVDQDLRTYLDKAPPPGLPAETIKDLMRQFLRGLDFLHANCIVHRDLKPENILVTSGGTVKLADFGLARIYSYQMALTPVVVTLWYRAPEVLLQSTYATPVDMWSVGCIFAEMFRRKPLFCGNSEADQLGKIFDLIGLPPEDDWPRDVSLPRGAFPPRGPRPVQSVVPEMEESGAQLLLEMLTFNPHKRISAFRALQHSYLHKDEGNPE
Chain of Cyclin-dependent kinase 4/cyclin D1 (P24385 whole entry, further chain): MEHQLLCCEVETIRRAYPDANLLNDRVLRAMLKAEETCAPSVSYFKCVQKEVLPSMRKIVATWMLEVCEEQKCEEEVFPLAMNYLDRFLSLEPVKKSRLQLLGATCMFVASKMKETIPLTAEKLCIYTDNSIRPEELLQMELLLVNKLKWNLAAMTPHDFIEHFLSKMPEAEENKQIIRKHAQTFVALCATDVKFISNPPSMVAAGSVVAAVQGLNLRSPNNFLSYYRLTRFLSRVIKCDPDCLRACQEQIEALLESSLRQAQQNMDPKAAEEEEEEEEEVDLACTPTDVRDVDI
Chain of Cyclin-dependent kinase 1 (P06493 whole entry): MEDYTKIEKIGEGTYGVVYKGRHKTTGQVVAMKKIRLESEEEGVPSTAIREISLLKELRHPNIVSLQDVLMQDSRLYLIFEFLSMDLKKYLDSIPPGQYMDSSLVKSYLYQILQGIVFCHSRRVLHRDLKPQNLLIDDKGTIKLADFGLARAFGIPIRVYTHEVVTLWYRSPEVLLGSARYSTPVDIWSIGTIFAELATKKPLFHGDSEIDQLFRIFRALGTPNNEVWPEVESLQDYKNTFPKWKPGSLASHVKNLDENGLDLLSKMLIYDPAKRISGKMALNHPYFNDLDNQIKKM

SMILES	Ki [1] [nM]	Ki [2] [nM]	Ki [3] [nM]	clearance (in vivo [4]) [mL/min/kg]	Vd (in vivo [5]) [L/kg]
CN1CCN(c2ccc(Nc3ncc(C(=O)c4ccccc4C(F)(F)F)c(N)n3)cc2)CC1	821	> 10000	> 10000		
CN1CCN(c2ccc(Nc3ncc(C(=O)c4cccc(C(F)(F)F)c4)c(N)n3)cc2)CC1	> 1000	> 10000	> 10000		
COc1ccccc1C(=O)c1cnc(Nc2ccc(N3CCN(C)CC3)cc2)nc1N	159	5140	1260		
CN1CCN(c2ccc(Nc3ncc(C(=O)c4cccc(F)c4)c(N)n3)cc2)CC1	450	> 10000	> 10000		
CCOC(=O)N1CCC(Nc2ncc(C(=O)c3ccccc3C)c(N)n2)CC1	665	2170	1110		
CCOC(=O)N1CCC(Nc2ncc(C(=O)c3ccccc3F)c(N)n2)CC1	734	3140	1640		
Cc1ccccc1C(=O)c1cnc(Nc2ccc(N3CCN(C)CC3)cc2)nc1N	584	> 10000	> 10000		
COc1cccc(C(=O)c2cnc(Nc3ccc(N4CCN(C)CC4)cc3)nc2N)c1	> 1000	> 10000	> 10000		
CCOc1ccccc1C(=O)c1cnc(NC2CCN(C(C)=O)CC2)nc1N	986	2030	2500		
COc1ccccc1C(=O)c1cnc(NC2CCNCC2)nc1N	481	6270	5840		

Other lines, results leading:

Ki [1] [nM]	Ki [2] [nM]	Ki [3] [nM]	clearance (in vivo [4]) [mL/min/kg]	Vd (in vivo [5]) [L/kg]	SMILES
17	15	38			CS(=O)(=O)N1CCC(Nc2ncc(C(=O)c3c(F)cccc3F)c(N)n2)CC1
7	7	14	48.3	0.885	COc1ccc(F)cc1C(=O)c1cnc(NC2CCN(S(C)(=O)=O)CC2)nc1N
6	6	14			COc1cc(F)c(F)cc1C(=O)c1cnc(NC2CCN(S(C)(=O)=O)CC2)nc1N
98	886	278			CCCC(=O)N1CCC(Nc2ncc(C(=O)c3ccccc3OC)c(N)n2)CC1
110	597	246			CCOC(=O)N1CCC(Nc2ncc(C(=O)c3ccccc3OC)c(N)n2)CC1
3	13	17			COc1cccc(F)c1C(=O)c1cnc(NC2CCN(S(C)(=O)=O)CC2)nc1N
> 1000	> 10000	6620			COc1ccccc1C(=O)c1cnc(NC2CCN(C)CC2)nc1N
16	51	43			CCS(=O)(=O)N1CCC(Nc2ncc(C(=O)c3ccccc3OC)c(N)n2)CC1
66	327	181			COc1ccccc1C(=O)c1cnc(NC2CCN(C(C)=O)CC2)nc1N
1	2	5			COc1cc(F)c(F)c(F)c1C(=O)c1cnc(NC2CCN(S(C)(=O)=O)CC2)nc1N
21	84	193			COc1cc(F)ccc1C(=O)c1cnc(NC2CCN(S(C)(=O)=O)CC2)nc1N
267	495	1670			COc1c(C(=O)c2cnc(NC3CCN(S(C)(=O)=O)CC3)nc2N)cc(F)c(F)c1F
36	451	133			COc1ccc(Cl)cc1C(=O)c1cnc(NC2CCN(S(C)(=O)=O)CC2)nc1N
409	1760	1530			CCNC(=O)N1CCC(Nc2ncc(C(=O)c3ccccc3OC)c(N)n2)CC1
